Measured values: PubChem BioAssay (NCI)
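Grown in 96-well plates, cells were treated for 48 hours with each compound at five concentrations. Insufficient inhibition: endpoint recorded as highest concentration tested. The concentration for 50% growth inhibition is given as GI50. At the TGI there is no net growth.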

How the values were obtained:
Assay in all cases: inhibition of tumour cell growth, NCI panel, 48 h
[1] = tested on: ACHN renal
[2] = tested on: SK-OV-3 ovarian
[3] = tested on: T-47D breast
[4] = tested on: COLO 205 colon
[5] = tested on: HS 578T breast
[6] = tested on: OVCAR-5 ovarian
[7] = tested on: MOLT-4 leukemia
[8] = tested on: SK-MEL-2 melanoma
[9] = tested on: OVCAR-3 ovarian
[10] = tested on: BT-549 breast

| Compound | TGI [1] [µM] | TGI [2] [µM] | TGI [3] [µM] | TGI [4] [µM] | TGI [5] [µM] | TGI [6] [µM] | TGI [7] [µM] | TGI [8] [µM] | TGI [9] [µM] | TGI [10] [µM] | GI50 [1] [µM] | GI50 [3] [µM] | GI50 [4] [µM] | GI50 [5] [µM] | GI50 [6] [µM] | GI50 [7] [µM] | GI50 [8] [µM] | GI50 [9] [µM] | GI50 [2] [µM] | GI50 [10] [µM] |
| --- | --- | --- | --- | --- | --- | --- | --- | --- | --- | --- | --- | --- | --- | --- | --- | --- | --- | --- | --- | --- |
| O=C(/C=C/c1cccs1)c1ccccc1Cl | 29.4 | > 77.9 | 22.8 | 38.6 | 35.5 | 28.9 | > 23.4 | 43.6 | 28.2 | – | – | – | – | – | – | – | – | – | – | – |
| CCOC(=O)c1cn(C)c(=S)n2c1nc1ccccc12 | > 100 | – | > 100 | > 100 | – | > 100 | > 100 | > 100 | > 100 | > 100 | – | – | – | – | – | – | – | – | – | – |
| CCN(CC)c1ccc2cc(-c3nc4ccccc4c(=O)[nH]3)c(=N)oc2c1 | > 100 | > 100 | > 100 | > 100 | > 100 | > 100 | > 100 | > 100 | – | > 100 | – | – | – | – | – | – | – | – | – | – |
| Cc1ccc(S(=O)(=O)n2cc(C#N)c(C#N)c2)cc1 | 40.7 | 91.9 | 72.4 | 68.2 | 61.4 | 81.2 | > 100 | 52 | 46.2 | 45.2 | – | – | – | – | – | – | – | – | – | – |
| COC(=O)c1c(-c2ccc(Cl)cc2)cc2c3ccccc3n(C)c2c1C(=O)OC | > 100 | > 100 | – | > 100 | > 100 | > 100 | > 100 | > 100 | > 100 | > 100 | – | – | – | – | – | – | – | – | – | – |
| CCC(CC(C)C)Nc1ccc(NC(CC)CC(C)C)cc1 (configuration not stated) | 28.5 | – | 26.7 | 23 | > 100 | 29.1 | 44.5 | 27.4 | 26 | – | 15.3 | 12.7 | 11 | 25 | 15.6 | 17.8 | 12.9 | 13.3 | – | – |
| CO[C@]1(CN2CCN3CCCC[C@@H]3C2)/C=C/C[C@H](C)[C@@H](C)S(=O)(=O)NC(=O)c2ccc3c(c2)N(C[C@@H]2CC[C@H]21)C[C@@]1(CCCc2cc(Cl)ccc21)CO3 | 3.9 | 7.5 | 5.11 | – | 3.57 | 3.8 | 2.1 | 0.183 | 3.03 | – | 1.86 | 1.87 | – | 1.18 | 1.93 | 0.198 | 0.0454 | 1.62 | 2.67 | – |
| CC(=O)CC(=O)CCC(=O)O | > 100 | > 100 | – | > 100 | – | > 100 | > 100 | > 100 | – | – | – | – | – | – | – | – | – | – | – | – |
| C/C(=N\Nc1nc2ccccc2[nH]1)c1cc2ccccc2cn1 | 0.638 | 12.7 | 1.12 | – | 1.74 | 2.5 | > 100 | – | 0.911 | 21.2 | – | – | – | – | – | – | – | – | – | – |
| CC(C)(C)OC(=O)n1cc(C2CN(O)C(=O)C23CCC(=O)N3Cc2ccccc2)c2ccccc21 (configuration not stated) | – | 66.5 | > 100 | > 100 | > 100 | > 100 | > 100 | 35.7 | > 100 | – | – | – | – | – | – | – | – | – | – | – |
| Cc1csc(NC(=NCCN2CCOCC2)Nc2nc(C)cs2)n1 | – | > 100 | – | > 100 | – | > 100 | > 100 | > 100 | > 100 | – | – | – | – | – | – | – | – | – | – | – |
| CC(=O)O[C@H]1CC[C@@]2(C)[C@H](CC[C@@H]3[C@@H]2CC[C@]2(C)[C@@H](c4ccc(=O)oc4)C[C@H]4O[C@]342)C1 | – | 5.68 | – | 14.2 | – | 12.2 | 0.556 | 6.49 | 1.67 | – | – | – | – | – | – | – | – | – | – | – |
| Cc1nc2ccc(Cl)cc2c2c1CCN2c1ccccc1 | 62.4 | – | 36.3 | 18.1 | 55.7 | – | 28.5 | – | 44.1 | 31.2 | – | – | – | – | – | – | – | – | – | – |
| O=[N+]([O-])c1cccnc1-n1cnc2ccccc21 | – | > 100 | > 100 | > 100 | > 100 | > 100 | > 100 | > 100 | > 100 | > 100 | – | – | – | – | – | – | – | – | – | – |
| COc1ccccc1CNCCCCCCCCCCCCN1C(=O)c2ccc3c4c(ccc(c24)C1=O)C(=O)N(CCCCCCCCCCCCNCc1ccccc1OC)C3=O | > 50 | > 50 | > 50 | > 50 | – | > 50 | > 50 | > 50 | – | 20.2 | > 50 | > 50 | > 50 | – | > 50 | > 50 | 1.99 | – | > 50 | 7.74 |
| O=[N+]([O-])c1ccc(C(Nc2ccccc2)c2ccc3cccnc3c2O)cc1 (configuration not stated) | > 100 | > 100 | 44.4 | 45.6 | > 71.7 | > 100 | – | > 100 | 33.6 | > 70.3 | – | – | – | – | – | – | – | – | – | – |
